Measurements published in US20230203059A1, “MACROCYCLIC JAK INHIBITOR AND USES THEREOF” (Biopolar Hongye (Guangdong) Pharmaceutical Co. Ltd., priority 2020, published 2023).

How the values were obtained:
Assay type in all cases: biochemical
TYK2 = TYK2 (Homo sapiens, UniProt P29597); experiment: JAK kinase activity, homogeneous time-resolved fluorescence (TYK2 reaction system); settings: ATP 2 μM, TYK2 protein 0.2 ng/μL; read-out: TYK 2 activity
How it was run: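 Activity read as the 665 nm/615 nm ratio after adding EDTA-containing detection mix with anti-phospho-substrate antibody and XL-615. Beforehand, 0.2 ng/μL TYK2, 2 μM ATP, substrate and compound reacted 1 h in pH 7.0 Hepes buffer with MgCl2 and DTT. IC50 fitted with Hill-slope equation.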

JAK3 = biological target: T1, JAK3 (Homo sapiens, UniProt P52333); experiment: JAK kinase activity, homogeneous time-resolved fluorescence (JAK3 reaction system); settings: ATP 2 μM, JAK3 protein 0.04 ng/μL; read-out: JAK 3 activity
T1 sequence (P52333 1-1124): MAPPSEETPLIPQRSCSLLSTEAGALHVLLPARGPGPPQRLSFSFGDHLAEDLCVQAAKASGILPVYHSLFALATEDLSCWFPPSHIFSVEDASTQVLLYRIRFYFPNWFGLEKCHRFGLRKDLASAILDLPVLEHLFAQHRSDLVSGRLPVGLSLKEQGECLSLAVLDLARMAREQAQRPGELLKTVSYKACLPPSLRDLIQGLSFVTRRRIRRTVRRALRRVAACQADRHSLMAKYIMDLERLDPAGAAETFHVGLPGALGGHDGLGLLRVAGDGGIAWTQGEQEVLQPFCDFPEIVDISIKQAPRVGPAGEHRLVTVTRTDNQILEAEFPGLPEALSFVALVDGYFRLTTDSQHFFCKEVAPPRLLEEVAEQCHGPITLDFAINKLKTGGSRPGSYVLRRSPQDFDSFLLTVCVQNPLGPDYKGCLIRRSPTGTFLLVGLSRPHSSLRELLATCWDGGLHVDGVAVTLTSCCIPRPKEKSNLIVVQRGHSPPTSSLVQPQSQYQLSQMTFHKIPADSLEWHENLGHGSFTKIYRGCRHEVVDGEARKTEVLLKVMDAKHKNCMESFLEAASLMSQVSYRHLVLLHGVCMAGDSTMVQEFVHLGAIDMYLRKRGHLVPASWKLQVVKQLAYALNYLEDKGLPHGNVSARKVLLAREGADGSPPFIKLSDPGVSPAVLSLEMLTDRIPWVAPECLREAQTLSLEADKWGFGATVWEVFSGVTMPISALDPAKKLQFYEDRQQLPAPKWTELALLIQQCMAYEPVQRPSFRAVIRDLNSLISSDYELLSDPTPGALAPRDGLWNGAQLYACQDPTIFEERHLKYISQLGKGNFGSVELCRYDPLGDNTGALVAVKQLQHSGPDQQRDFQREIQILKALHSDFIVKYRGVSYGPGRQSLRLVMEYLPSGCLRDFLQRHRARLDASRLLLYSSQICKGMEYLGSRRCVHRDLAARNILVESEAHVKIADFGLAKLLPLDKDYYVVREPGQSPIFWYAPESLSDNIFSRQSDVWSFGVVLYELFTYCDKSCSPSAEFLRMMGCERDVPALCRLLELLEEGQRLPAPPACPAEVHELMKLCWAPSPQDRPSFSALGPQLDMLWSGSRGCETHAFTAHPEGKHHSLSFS

JAK2 = JAK2 (Homo sapiens, UniProt O60674); experiment: JAK kinase activity, homogeneous time-resolved fluorescence (JAK2 reaction system); settings: ATP 2 μM, JAK2 protein 0.01 ng/μL
How it was run: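 IC50 derived by Hill-equation fit of the 665/615 nm time-resolved fluorescence ratio after EDTA-containing detection mix with anti-phosphosubstrate antibody. Preceding 1 h reaction contained 2 μM ATP, 0.01 ng/μL JAK2, substrate, 50 mM Hepes pH 7.0, 5 mM MgCl2, 1 mM DTT.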

JAK1 = JAK1 (Homo sapiens, UniProt P23458); experiment: JAK kinase activity, homogeneous time-resolved fluorescence (JAK1 reaction system); settings: ATP 2 μM, JAK1 protein 0.2 ng/μL; read-out: JAK 1 activity
How it was run: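 HTRF assay: JAK1 (0.2 ng/μL) with 2 μM ATP and substrate in 50 mM Hepes pH 7.0, 5 mM MgCl2, 1 mM DTT, 1 h. Phospho-substrate antibody/XL-615 detection with EDTA; 665/615 nm ratio, excitation 320 nm. IC50 from Hill-type fit against no-enzyme and no-compound controls.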

Sequence of JAK2 (O60674 whole entry): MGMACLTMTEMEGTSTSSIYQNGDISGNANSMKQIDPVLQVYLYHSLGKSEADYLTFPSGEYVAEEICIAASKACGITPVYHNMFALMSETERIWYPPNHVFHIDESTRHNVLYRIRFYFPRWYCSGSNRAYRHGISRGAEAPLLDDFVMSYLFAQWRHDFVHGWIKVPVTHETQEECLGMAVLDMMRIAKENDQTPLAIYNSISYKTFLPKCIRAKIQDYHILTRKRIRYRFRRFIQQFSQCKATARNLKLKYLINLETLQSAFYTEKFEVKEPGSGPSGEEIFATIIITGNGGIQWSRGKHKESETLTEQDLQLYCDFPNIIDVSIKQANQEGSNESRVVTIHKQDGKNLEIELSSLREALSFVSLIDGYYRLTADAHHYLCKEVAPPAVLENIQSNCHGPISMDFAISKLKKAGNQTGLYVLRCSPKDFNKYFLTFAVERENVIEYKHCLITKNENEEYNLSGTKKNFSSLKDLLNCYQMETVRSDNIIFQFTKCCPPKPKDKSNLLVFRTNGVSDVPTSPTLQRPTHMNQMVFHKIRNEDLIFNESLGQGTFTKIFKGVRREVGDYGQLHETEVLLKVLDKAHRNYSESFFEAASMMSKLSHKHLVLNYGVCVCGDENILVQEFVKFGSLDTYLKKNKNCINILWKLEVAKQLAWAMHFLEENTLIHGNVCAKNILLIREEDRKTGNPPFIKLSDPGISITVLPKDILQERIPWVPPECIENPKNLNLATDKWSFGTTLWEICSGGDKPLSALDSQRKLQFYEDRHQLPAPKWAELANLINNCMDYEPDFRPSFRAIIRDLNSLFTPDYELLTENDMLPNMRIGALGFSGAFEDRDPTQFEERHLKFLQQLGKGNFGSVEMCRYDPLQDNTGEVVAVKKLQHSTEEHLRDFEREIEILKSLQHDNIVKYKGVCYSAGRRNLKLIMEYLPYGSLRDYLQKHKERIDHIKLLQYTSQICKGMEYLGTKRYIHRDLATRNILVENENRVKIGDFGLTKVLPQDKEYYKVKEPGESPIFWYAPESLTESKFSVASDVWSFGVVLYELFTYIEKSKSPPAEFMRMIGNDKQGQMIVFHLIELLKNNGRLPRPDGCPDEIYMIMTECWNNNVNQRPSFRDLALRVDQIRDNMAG
Sequence of TYK2 (P29597 whole entry): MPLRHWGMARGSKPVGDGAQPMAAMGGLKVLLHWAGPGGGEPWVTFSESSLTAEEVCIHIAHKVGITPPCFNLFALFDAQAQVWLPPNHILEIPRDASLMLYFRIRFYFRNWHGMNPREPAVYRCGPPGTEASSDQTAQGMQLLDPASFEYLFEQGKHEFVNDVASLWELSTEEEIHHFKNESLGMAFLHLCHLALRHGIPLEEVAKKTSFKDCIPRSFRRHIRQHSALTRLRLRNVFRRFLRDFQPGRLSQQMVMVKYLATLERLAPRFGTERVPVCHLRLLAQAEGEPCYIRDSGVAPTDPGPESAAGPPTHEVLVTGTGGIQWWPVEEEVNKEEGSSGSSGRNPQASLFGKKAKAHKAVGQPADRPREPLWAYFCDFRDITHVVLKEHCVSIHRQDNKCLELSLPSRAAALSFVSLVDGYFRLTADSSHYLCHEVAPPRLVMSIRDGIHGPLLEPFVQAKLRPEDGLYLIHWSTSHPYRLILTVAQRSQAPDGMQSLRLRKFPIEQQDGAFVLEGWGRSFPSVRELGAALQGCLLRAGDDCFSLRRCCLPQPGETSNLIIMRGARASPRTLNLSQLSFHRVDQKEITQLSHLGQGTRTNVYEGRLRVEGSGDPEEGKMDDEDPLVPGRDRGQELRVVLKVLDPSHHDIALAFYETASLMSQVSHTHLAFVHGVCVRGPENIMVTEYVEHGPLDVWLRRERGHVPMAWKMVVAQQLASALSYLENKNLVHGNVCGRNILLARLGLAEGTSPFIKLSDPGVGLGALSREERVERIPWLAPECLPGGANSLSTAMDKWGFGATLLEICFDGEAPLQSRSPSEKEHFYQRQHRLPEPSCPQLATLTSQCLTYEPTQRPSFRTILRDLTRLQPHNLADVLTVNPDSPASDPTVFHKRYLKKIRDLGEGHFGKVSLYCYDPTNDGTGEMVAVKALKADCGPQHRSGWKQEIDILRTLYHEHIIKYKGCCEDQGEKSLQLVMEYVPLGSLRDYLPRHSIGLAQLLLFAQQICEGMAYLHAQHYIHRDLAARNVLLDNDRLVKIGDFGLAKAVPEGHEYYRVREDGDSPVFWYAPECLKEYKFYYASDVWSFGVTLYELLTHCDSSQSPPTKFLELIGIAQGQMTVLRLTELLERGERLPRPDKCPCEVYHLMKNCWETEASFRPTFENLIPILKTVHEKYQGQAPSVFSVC
Sequence of JAK1 (P23458 whole entry): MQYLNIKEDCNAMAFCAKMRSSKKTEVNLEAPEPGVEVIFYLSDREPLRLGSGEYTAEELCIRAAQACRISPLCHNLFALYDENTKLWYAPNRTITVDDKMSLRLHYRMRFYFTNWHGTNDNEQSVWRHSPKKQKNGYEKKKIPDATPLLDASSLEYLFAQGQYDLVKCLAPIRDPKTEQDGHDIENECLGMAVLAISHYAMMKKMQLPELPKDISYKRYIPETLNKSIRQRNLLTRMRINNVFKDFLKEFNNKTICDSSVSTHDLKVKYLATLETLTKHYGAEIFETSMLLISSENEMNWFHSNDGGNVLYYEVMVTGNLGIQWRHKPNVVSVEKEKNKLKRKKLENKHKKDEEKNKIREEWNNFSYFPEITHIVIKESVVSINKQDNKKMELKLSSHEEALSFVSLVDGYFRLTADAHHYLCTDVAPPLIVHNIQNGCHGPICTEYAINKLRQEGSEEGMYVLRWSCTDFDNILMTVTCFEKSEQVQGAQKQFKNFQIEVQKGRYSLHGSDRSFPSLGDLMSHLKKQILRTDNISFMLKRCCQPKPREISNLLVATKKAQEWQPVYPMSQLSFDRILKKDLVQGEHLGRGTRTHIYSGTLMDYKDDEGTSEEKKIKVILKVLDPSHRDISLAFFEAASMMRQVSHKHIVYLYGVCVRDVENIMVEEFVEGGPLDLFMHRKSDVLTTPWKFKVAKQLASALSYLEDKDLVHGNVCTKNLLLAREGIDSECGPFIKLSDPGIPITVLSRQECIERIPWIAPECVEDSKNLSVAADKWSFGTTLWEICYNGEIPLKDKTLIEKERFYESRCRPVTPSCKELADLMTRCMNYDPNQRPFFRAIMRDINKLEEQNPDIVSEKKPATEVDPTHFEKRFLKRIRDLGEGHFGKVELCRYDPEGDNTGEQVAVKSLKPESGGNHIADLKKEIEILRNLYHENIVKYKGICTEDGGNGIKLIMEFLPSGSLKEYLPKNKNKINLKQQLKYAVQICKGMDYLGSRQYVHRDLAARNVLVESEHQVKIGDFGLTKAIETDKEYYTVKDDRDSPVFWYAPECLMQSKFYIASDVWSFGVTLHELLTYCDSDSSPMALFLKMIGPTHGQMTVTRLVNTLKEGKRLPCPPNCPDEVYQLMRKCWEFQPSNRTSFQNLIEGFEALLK

IC50 (TYK2) | IC50 (JAK3) | IC50 (JAK2) | IC50 (JAK1) | SMILES
> 10 µM | 1 to 10 µM | > 10 µM | 1 to 10 µM | O=C1Nc2ccc(cc2)OCc2cc(ccc2Oc2cccnc2)Nc2nccc(n2)-c2ccc1cc2[N+](=O)[O-] [Example 204, 1-nitro-4^4-(pyridin-3-oxy)-6-oxa-3,8-diaza-2(4,2)-pyrimidina-1,7(1,4),4(1,3)-tribenzenacyclononaphen-9-one]
1 to 10 µM | < 0.01 µM | 0.101 to 1 µM | 0.101 to 1 µM | Nc1cc2ccc1-c1ccnc(n1)Nc1ccc(OCC3CCOC3)c(c1)COCCCCNC2=O (stereo not shown) [Example 125, 1^2-amino-4^4-((tetrahydrofuran-3-yl)methoxy)-6-oxa-3,11-diaza-2(4,2)-pyrimidina-1(1,4),4(1,3)-dibenz-enacyclododecaphan-12-one]
0.101 to 1 µM | 0.011 to 0.1 µM | 0.011 to 0.1 µM | 0.101 to 1 µM | Nc1cc2ccc1-c1ccnc(n1)Nc1cc(cc(N3CCSCC3)c1)COCCCCNC2=O [Example 77, 1^2-amino-4^5-thiomorpholin-6-oxa-3,11-diaza-2(4,2)-pyrimidina-1(1,4),4(1,3)-dibenzenacyclododecaphan-12-one]
> 10 µM | 0.101 to 1 µM | > 10 µM | > 10 µM | Nc1cc2ccc1-c1ccnc(n1)Nc1ccc(Oc3ccncc3)c(c1)COCCCCNC2=O [Example 143, 1^2-amino-4^4-(pyridin-4-oxy)-6-oxa-3,11-diaza-2(4,2)-pyrimidina-1(1,4),4(1,3)-dibenzenacyclododeca-phan-12-one]
> 10 µM | 0.011 to 0.1 µM | 0.101 to 1 µM | 1 to 10 µM | Nc1cc2ccc1-c1ccnc(n1)Nc1ccc(OC3CC3)c(c1)COc1ccc(cc1)NC2=O [Example 200, 1^2-amino-4^4-cyclopropoxy-6-oxa-3,8-diaza-2(4,2)-pyrimidina-1,7(1,4),4(1,3)-tribenzenacyclononanphane-9-one]
1 to 10 µM | 0.011 to 0.1 µM | 0.101 to 1 µM | 1 to 10 µM | Cc1cc2ccc1-c1ccnc(n1)Nc1ccc(OC3CCCCC3)c(c1)COCCCCNC2=O [Example 44, 1^2-methyl-4^4-cyclohexyloxy-6-oxa-3,11-diaza-2(4,2)-pyrimidina-1(1,4)-4(1,3)-dibenzenacyclododecaphan-12-one]
1 to 10 µM | 0.011 to 0.1 µM | 0.101 to 1 µM | 1 to 10 µM | CN1CCN(c2ccc3cc2COCCCCNC(=O)c2ccc(c(N)c2)-c2ccnc(n2)N3)CC1 [Example 70, 1^2-amino-4^4-(4-methylpiperazin-1-yl)-6-oxa-3,11-diaza-2(4,2)-pyrimidi-na-1(1,4),4(1,3)-dibenzenacyclo-dodecaphan-12-one]
1 to 10 µM | 1 to 10 µM | 1 to 10 µM | 1 to 10 µM | O=C1NCCCCOCc2cc(ccc2N2CCSCC2)Nc2nccc(n2)-c2ccc1cc2[N+](=O)[O-] [Example 65, 1^2-nitro-4^4-thiomorpholin-6-oxa-3,11-diaza-2(4,2)-pyrimidina-1(1,4),4(1,3)-dibenzenacyclododecaphan-12-one]
> 10 µM | 0.011 to 0.1 µM | 1 to 10 µM | 1 to 10 µM | Nc1cc2ccc1-c1ccnc(n1)Nc1ccc(Oc3ccccc3)c(c1)COCCCCNC2=O [Example 96, 1^2-amino-4^4-phenoxy-6-oxa-3,11-diaza-2(4,2)-pyrimidin-1(1,4),4(1,3)-dibenzenacyclododecaphan-12-one]
1 to 10 µM | < 0.01 µM | 0.101 to 1 µM | 1 to 10 µM | CC1CCNC(=O)c2ccc(c(N)c2)-c2ccnc(n2)Nc2ccc(OCC3CCOC3)c(c2)COC1 (stereo not shown) [Example 136, 1^2-amino-8-methyl-4^4-((tetrahydro-furan-3-yl)methoxy)-6-oxa-3,11-diaza-2(4,2)-pyrimidina-1(1,4),4(1,3)-dibenzenacyclododecaphan-12-one]
> 10 µM | 0.101 to 1 µM | 1 to 10 µM | 1 to 10 µM | O=C1NCCCCOCc2cc(cc(F)c2F)Nc2nccc(n2)-c2ccc1cc2[N+](=O)[O-] [Example 93, 4^4,4^5-difluoro-1^2-nitro-6-oxa-3,11-di-aza-2(4,2)-pyrimidina-1(1,4),4(1,3)-dibenzenacyclododecaphan-12-one]
> 10 µM | 0.011 to 0.1 µM | 0.101 to 1 µM | 0.101 to 1 µM | CC(C)Oc1ccc2cc1COCC[C@H](C)CNC(=O)c1ccc(c(N)c1)-c1ccnc(n1)N2 [Example 189, (S)-1^2-amino-4^4-isopropoxy-9-meth-yl-6-oxa-3,11-diaza-2(4,2)-pyrimi-dina-1(1,4),4(1,3)-dibenzenacyclo-dodecaphan-12-one]
1 to 10 µM | 0.101 to 1 µM | 0.101 to 1 µM | 1 to 10 µM | O=C1NCCCCOCc2cc(ccc2N2CCOCC2)Nc2nccc(n2)-c2ccc1cc2OC(F)(F)F [Example 22, 4^4-morpholin-1^2-trifluoromethoxy-6-oxa-3,11-diaza-2(4,2)-pyrimidina-1(1,4),4(1,3)-dibenzenacyclododeca-phan-12-one]
1 to 10 µM | 0.011 to 0.1 µM | 0.101 to 1 µM | 1 to 10 µM | Nc1cc2ccc1-c1ccnc(n1)Nc1ccc(OC3CCCOC3)c(c1)COc1ccc(cc1)NC2=O (stereo not shown) [Example 197, 1^2-amino-4^4-((tetrahydro-2H-pyran-3-yl)oxy)-6-oxa-3-8-diaza-2 (4,2)-pyrimidina-1,7(1,4), 4 (1,3)-tribenzenacyclononaphane-9-one]
> 10 µM | 0.101 to 1 µM | 1 to 10 µM | 1 to 10 µM | CC1CCNC(=O)c2ccc(c([N+](=O)[O-])c2)-c2ccnc(n2)Nc2ccc(OC3CCCOC3)c(c2)COC1 (stereo not shown) [Example 137, 8-methyl-1^2-nitro-4^4-((tetrahydro-2H-pyran-3-yl)oxy)-6-oxa-3,11-di-aza-2(4,2)-pyrimidina-1(1,4),4(1,3)-dibenzenacyclododecaphan-12-one]
> 10 µM | 0.101 to 1 µM | 1 to 10 µM | 1 to 10 µM | COc1cccc(F)c1COc1ccc2cc1COCC[C@H](C)CNC(=O)c1ccc(c(N)c1)-c1ccnc(n1)N2 [Example 192, (S)-1^2-amino-4^4-((2-fluoro-6-meth-oxybenzyl)oxy)-9-methyl-6-oxa-3,11-diaza-2(4,2)-pyrimidina-1(1,4),4(1,3)-dibenzenacyclo-dodecaphan-12-one]
> 10 µM | 0.101 to 1 µM | 1 to 10 µM | 1 to 10 µM | Cc1cc2ccc1-c1ccnc(n1)Nc1cccc(c1)COCCCCNC2=O [Example 40, 1^2-methyl-6-oxa-3,11-diaza-2(4,2)-pyrimidina-1(1,4),4(1,3)-diben-zenacyclododecaphan-12-one]
1 to 10 µM | 0.101 to 1 µM | 0.101 to 1 µM | 1 to 10 µM | O=C1NCCCCOCc2cc(ccc2N2CCOCC2)Nc2nccc(n2)-c2ccc1cc2I [Example 41, 1^2-iodine-4^4-morpholin-6-oxa-3,11-diaza-2(4,2)-pyrimidina-1(1,4),4(1,3)-dibenzenacyclododephan-12-one]
1 to 10 µM | 0.011 to 0.1 µM | 0.101 to 1 µM | 1 to 10 µM | Nc1cc2ccc1-c1ccnc(n1)Nc1ccc(OCC3COC3)c(c1)COCCCCNC2=O [Example 164, 1^2-amino-4^4-(oxetan-3-ylmethoxy)-6-oxa-3-diaza-2(4,2)-pyrimidina-1(1,4),4(1,3)-dibenzenacyclo-dodecaphan-12-one]
